Numbers after ± are expanded uncertainties.
How the values were obtained:
[1] = molar heat capacity at constant pressure; settings: 101.33 kPa, Liquid, Small sample (50 mg) DSC
[2] = 101.33 kPa, Liquid; for viscosity: Concentric cylinders viscometry; for electrical conductivity: Metler Toledo SevenEasy conductivity meter; for mass density: Vibrating tube method

CCCCCCn1cc[n+](C)c1.F[P-](F)(F)(F)(F)F [1-hexyl-3-methylimidazolium hexafluorophosphate]
Settings | electrical conductivity [S/m] | mass density [kg/m3] | molar heat capacity at constant pressure [J/K/mol] | viscosity [mPa·s]
[1], 293.15 K | – | – | 421.53 ± 14 | –
[1], 294.15 K | – | – | 422.15 ± 14 | –
[1], 295.15 K | – | – | 422.78 ± 14 | –
[1], 296.15 K | – | – | 423.09 ± 14 | –
[1], 297.15 K | – | – | 423.4 ± 14 | –
[1], 298.15 K | – | – | 424.02 ± 14 | –
[1], 299.15 K | – | – | 424.34 ± 14 | –
[1], 300.15 K | – | – | 424.96 ± 14 | –
[1], 301.15 K | – | – | 425.27 ± 14 | –
[1], 302.15 K | – | – | 426.21 ± 14 | –
[1], 303.15 K | – | – | 426.83 ± 14 | –
[1], 304.15 K | – | – | 427.15 ± 14 | –
[1], 305.15 K | – | – | 427.46 ± 14 | –
[1], 306.15 K | – | – | 428.08 ± 14 | –
[1], 307.15 K | – | – | 428.71 ± 14 | –
[1], 308.15 K | – | – | 429.33 ± 14 | –
[1], 309.15 K | – | – | 429.96 ± 14 | –
[1], 310.15 K | – | – | 430.58 ± 14 | –
[1], 311.15 K | – | – | 431.21 ± 14 | –
[1], 312.15 K | – | – | 431.52 ± 14 | –
[1], 313.15 K | – | – | 432.14 ± 14 | –
[1], 314.15 K | – | – | 432.77 ± 14 | –
[1], 315.15 K | – | – | 433.39 ± 14 | –
[1], 316.15 K | – | – | 434.02 ± 14 | –
[1], 317.15 K | – | – | 434.64 ± 14 | –
[1], 318.15 K | – | – | 434.95 ± 14 | –
[1], 319.15 K | – | – | 435.58 ± 14 | –
[1], 320.15 K | – | – | 436.2 ± 14 | –
[1], 321.15 K | – | – | 436.83 ± 14 | –
[1], 322.15 K | – | – | 437.45 ± 15 | –
[1], 323.15 K | – | – | 437.76 ± 15 | –
[1], 324.15 K | – | – | 438.7 ± 15 | –
[1], 325.15 K | – | – | 439.32 ± 15 | –
[1], 326.15 K | – | – | 439.95 ± 15 | –
[1], 327.15 K | – | – | 440.89 ± 15 | –
[1], 328.15 K | – | – | 441.82 ± 15 | –
[1], 329.15 K | – | – | 442.45 ± 15 | –
[1], 330.15 K | – | – | 443.07 ± 15 | –
[1], 331.15 K | – | – | 444.01 ± 15 | –
[1], 332.15 K | – | – | 444.63 ± 15 | –
[1], 333.15 K | – | – | 445.26 ± 15 | –
[1], 334.15 K | – | – | 445.88 ± 15 | –
[1], 335.15 K | – | – | 446.51 ± 15 | –
[1], 336.15 K | – | – | 447.44 ± 15 | –
[1], 337.15 K | – | – | 448.07 ± 15 | –
[1], 338.15 K | – | – | 448.69 ± 15 | –
[1], 339.15 K | – | – | 449.32 ± 15 | –
[1], 340.15 K | – | – | 450.25 ± 15 | –
[1], 341.15 K | – | – | 450.56 ± 15 | –
[1], 342.15 K | – | – | 451.5 ± 15 | –
[1], 343.15 K | – | – | 452.44 ± 15 | –
[2], 293.15 K | 0.0388 ± 0.0004 | 1296.7 ± 3.3 | – | 693.1 ± 30
[2], 298.15 K | 0.0543 ± 0.0005 | 1292.9 ± 3.2 | – | 485.8 ± 20
[2], 303.15 K | 0.074 ± 0.001 | 1288.7 ± 3.2 | – | 350.9 ± 13
[2], 308.15 K | 0.0992 ± 0.001 | 1285.1 ± 3.2 | – | 255.4 ± 8.8
[2], 313.15 K | 0.1301 ± 0.0013 | 1281 ± 3.2 | – | 189.4 ± 6.1
[2], 318.15 K | 0.168 ± 0.0017 | 1277 ± 3.2 | – | 147.5 ± 4.4
[2], 323.15 K | 0.212 ± 0.002 | 1273 ± 3.1 | – | 114.7 ± 3.3
[2], 328.15 K | 0.264 ± 0.003 | 1269.1 ± 3.1 | – | 91.1 ± 2.5
[2], 333.15 K | 0.322 ± 0.003 | 1265.2 ± 3.1 | – | 73.5 ± 2
[2], 338.15 K | 0.391 ± 0.004 | 1261.2 ± 3.1 | – | 60 ± 1.6
[2], 343.15 K | 0.465 ± 0.005 | 1257 ± 3 | – | 49.6 ± 1.3

CCCCCC[n+]1ccn(C)c1.FC(F)(F)C(F)(F)[P-](F)(F)(F)(C(F)(F)C(F)(F)F)C(F)(F)C(F)(F)F
Settings | electrical conductivity [S/m] | mass density [kg/m3] | molar heat capacity at constant pressure [J/K/mol] | viscosity [mPa·s]
[1], 293.15 K | – | – | 725.56 ± 24 | –
[1], 294.15 K | – | – | 726.17 ± 24 | –
[1], 295.15 K | – | – | 726.78 ± 24 | –
[1], 296.15 K | – | – | 728.01 ± 24 | –
[1], 297.15 K | – | – | 728.62 ± 24 | –
[1], 298.15 K | – | – | 729.85 ± 24 | –
[1], 299.15 K | – | – | 730.46 ± 24 | –
[1], 300.15 K | – | – | 731.68 ± 24 | –
[1], 301.15 K | – | – | 732.29 ± 24 | –
[1], 302.15 K | – | – | 733.52 ± 24 | –
[1], 303.15 K | – | – | 734.13 ± 24 | –
[1], 304.15 K | – | – | 735.36 ± 24 | –
[1], 305.15 K | – | – | 735.97 ± 24 | –
[1], 306.15 K | – | – | 737.19 ± 24 | –
[1], 307.15 K | – | – | 737.81 ± 24 | –
[1], 308.15 K | – | – | 738.42 ± 24 | –
[1], 309.15 K | – | – | 739.64 ± 25 | –
[1], 310.15 K | – | – | 740.25 ± 25 | –
[1], 311.15 K | – | – | 741.48 ± 25 | –
[1], 312.15 K | – | – | 742.09 ± 25 | –
[1], 313.15 K | – | – | 743.32 ± 25 | –
[1], 314.15 K | – | – | 743.93 ± 25 | –
[1], 315.15 K | – | – | 745.15 ± 25 | –
[1], 316.15 K | – | – | 745.77 ± 25 | –
[1], 317.15 K | – | – | 746.99 ± 25 | –
[1], 318.15 K | – | – | 747.6 ± 25 | –
[1], 319.15 K | – | – | 748.83 ± 25 | –
[1], 320.15 K | – | – | 749.44 ± 25 | –
[1], 321.15 K | – | – | 750.05 ± 25 | –
[1], 322.15 K | – | – | 751.28 ± 25 | –
[1], 323.15 K | – | – | 751.89 ± 25 | –
[1], 324.15 K | – | – | 752.5 ± 25 | –
[1], 325.15 K | – | – | 753.11 ± 25 | –
[1], 326.15 K | – | – | 754.34 ± 25 | –
[1], 327.15 K | – | – | 754.95 ± 25 | –
[1], 328.15 K | – | – | 756.17 ± 25 | –
[1], 329.15 K | – | – | 756.79 ± 25 | –
[1], 330.15 K | – | – | 758.01 ± 25 | –
[1], 331.15 K | – | – | 758.62 ± 25 | –
[1], 332.15 K | – | – | 759.24 ± 25 | –
[1], 333.15 K | – | – | 759.85 ± 25 | –
[1], 334.15 K | – | – | 760.46 ± 25 | –
[1], 335.15 K | – | – | 761.07 ± 25 | –
[1], 336.15 K | – | – | 762.3 ± 25 | –
[1], 337.15 K | – | – | 762.91 ± 25 | –
[1], 338.15 K | – | – | 763.52 ± 25 | –
[1], 339.15 K | – | – | 764.75 ± 25 | –
[1], 340.15 K | – | – | 765.36 ± 25 | –
[1], 341.15 K | – | – | 765.97 ± 25 | –
[1], 342.15 K | – | – | 767.2 ± 25 | –
[1], 343.15 K | – | – | 767.81 ± 25 | –
[2], 293.15 K | 0.1303 ± 0.0013 | 1555.6 ± 0.7 | – | 114.3 ± 2.8
[2], 298.15 K | 0.167 ± 0.0017 | 1550.1 ± 0.7 | – | 88.2 ± 2.1
[2], 303.15 K | 0.209 ± 0.002 | 1544.7 ± 0.7 | – | 68.4 ± 1.6
[2], 308.15 K | 0.258 ± 0.003 | 1539.3 ± 0.7 | – | 54.1 ± 1.2
[2], 313.15 K | 0.313 ± 0.003 | 1533.9 ± 0.7 | – | 43.2 ± 1
[2], 318.15 K | 0.374 ± 0.004 | 1528.7 ± 0.7 | – | 35.1 ± 0.8
[2], 323.15 K | 0.44 ± 0.01 | 1523.5 ± 0.7 | – | 28.9 ± 0.6
[2], 328.15 K | 0.514 ± 0.005 | 1518 ± 1 | – | 24.4 ± 0.5
[2], 333.15 K | 0.593 ± 0.006 | 1512.6 ± 0.7 | – | 20.3 ± 0.4
[2], 338.15 K | 0.676 ± 0.007 | 1507.2 ± 0.7 | – | 17.3 ± 0.4
[2], 343.15 K | 0.769 ± 0.008 | 1501.8 ± 0.7 | – | 14.8 ± 0.3

From the NIST ThermoML archive (doi:10.1021/je200073x)
